Results published in patent US8771734B2, “Sustained-release hydrogel preparation” (Medgel Corporation, priority 2003, dated 2014).

Test: In vitro release experiment (Pt by atomic absorption)
Type: physicochemical
Settings: when no interaction with gelatin was created
Method: The thus resulting gelatin sheet of 2×2 cm following impregnation of the aqueous CDDP solution (water content: 97%) was placed in 10 ml of a phosphate buffer (PBS, pH 7.4) containing 0.1% Tween80, and shaken in a 37° C. incubator at 60 rpm/min. At a predetermined time, 5 ml of the supernatant was taken out. The same amount of 0.1% Tween80/PBS was immediately added to the sheet and put back in the incubator. Pt concentration in the samples was quantitatively determined three times using an atomic absorption photometer (Hitachi Model Z-8000, Hitachi, Ltd., Tokyo).

time until CDDP is entirely released: approximately 3 hrs
SMILES: [NH2][Pt]([NH2])([Cl])[Cl] [CDDP, cisplatin]
